Target: T1, human PTH1 receptor (Homo sapiens, UniProt Q03431)
T1 sequence (Q03431 27-593): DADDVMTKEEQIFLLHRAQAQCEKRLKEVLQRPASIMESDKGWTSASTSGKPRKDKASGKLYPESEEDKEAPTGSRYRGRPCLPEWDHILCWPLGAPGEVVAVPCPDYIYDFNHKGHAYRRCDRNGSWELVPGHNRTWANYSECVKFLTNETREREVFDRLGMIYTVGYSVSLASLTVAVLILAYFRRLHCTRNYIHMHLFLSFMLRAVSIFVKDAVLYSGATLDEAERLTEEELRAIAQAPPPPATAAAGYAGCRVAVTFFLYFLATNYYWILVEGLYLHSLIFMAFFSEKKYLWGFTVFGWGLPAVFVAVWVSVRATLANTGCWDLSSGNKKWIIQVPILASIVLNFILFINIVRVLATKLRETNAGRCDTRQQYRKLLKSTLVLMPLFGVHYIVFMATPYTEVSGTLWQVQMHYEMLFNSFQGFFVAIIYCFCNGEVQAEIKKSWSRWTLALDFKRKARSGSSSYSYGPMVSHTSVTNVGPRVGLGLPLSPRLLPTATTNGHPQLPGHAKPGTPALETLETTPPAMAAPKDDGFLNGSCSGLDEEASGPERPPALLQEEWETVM
Assay: In vitro cAMP signal activity in HKRK-B7 cells (LLC-PK1 cells overexpressing the human PTH1 receptor)
Assay type: cell-based
Conditions: HKRK-B7 cells; compound at 1×10^−3 M; cAMP produced as percentage of that produced by hPTH(1-34) at 100 nM

SMILES	cAMP production activity (%)
Cc1cc(S(=O)(=O)NCc2cccnc2)ccc1CCS(=O)(=O)N1CCC2(CC1)N=C(c1cccc(C(F)(F)F)c1)NC2=O [Compound 852, 3-methyl-4-{2-[4-oxo-2-(3-trifluoromethyl-phenyl)-1,3,8-triaza-spiro[4.5]dec-1-ene-8-sulfonyl]-ethyl}-N-pyridin-3-ylmethyl-benzenesulfonamide]	58
Cc1cc(S(=O)(=O)NC2CCC(O)CC2)ccc1CCS(=O)(=O)N1CCC2(CC1)N=C(c1cccc(C(F)(F)F)c1)NC2=O (stereo not shown) [Compound 853, N-(4-hydroxy-cyclohexyl)-3-methyl-4-{2-[4-oxo-2-(3-trifluoromethyl-phenyl)-1,3,8-triaza-spiro[4.5]dec-1-ene-8-sulfonyl]-ethyl}-benzenesulfonamide]	63
Cc1cc(S(=O)(=O)NC(CO)(CO)CO)ccc1CCS(=O)(=O)N1CCC2(CC1)N=C(c1cccc(C(F)(F)F)c1)NC2=O [Compound 854, N-(2-hydroxy-1,1-bis-hydroxymethyl-ethyl)-3-methyl-4-{2-[4-oxo-2-(3-trifluoromethyl-phenyl)-1,3,8-triaza-spiro[4.5]dec-1-ene-8-sulfonyl]-ethyl}-benzenesulfonamide]	80
Cc1cc(CCS(=O)(=O)N2CCC3(CC2)N=C(c2cccc(OC(F)(F)F)c2)NC3=O)cc(C)c1OCCC(O)CO (stereo not shown) [Compound 855, 8-{2-[4-(3,4-dihydroxy-butoxy)-3,5-dimethyl-phenyl]-ethanesulfonyl}-2-(3-trifluoromethoxy-phenyl)-1,3,8-triaza-spiro[4.5]dec-1-en-4-one]	82
Cc1cc(C(=O)N2CCCC2)ccc1CCS(=O)(=O)N1CCC2(CC1)N=C(c1ccc(F)c(C(F)(F)F)c1)NC2=O [Compound 856, 2-(4-fluoro-3-trifluoromethyl-phenyl)-8-{2-[2-methyl-4-(pyrrolidine-1-carbonyl)-phenyl]-ethanesulfonyl}-1,3,8-triaza-spiro[4.5]dec-1-en-4-one]	81
Cc1cc(N2C(=O)CC[C@@H]2CO)ccc1CCS(=O)(=O)N1CCC2(CC1)N=C(c1ccc(F)c(C(F)(F)F)c1)NC2=O [Compound 857, 2-(4-fluoro-3-trifluoromethyl-phenyl)-8-{2-[4-((R)-2-hydroxymethyl-5-oxo-pyrrolidin-1-yl)-2-methyl-phenyl]-ethanesulfonyl}-1,3,8-triaza-spiro[4.5]dec-1-en-4-one]	89
Cc1cc(N2C(=O)CC[C@H]2CO)ccc1CCS(=O)(=O)N1CCC2(CC1)N=C(c1ccc(F)c(C(F)(F)F)c1)NC2=O [Compound 858, 2-(4-fluoro-3-trifluoromethyl-phenyl)-8-{2-[4-((S)-2-hydroxymethyl-5-oxo-pyrrolidin-1-yl)-2-methyl-phenyl]-ethanesulfonyl}-1,3,8-triaza-spiro[4.5]dec-1-en-4-one]	100
Cc1cc(OC2CCN(C(=O)OC(C)(C)C)CC2)ccc1CCS(=O)(=O)N1CCC2(CC1)N=C(c1cccc(OC(F)(F)F)c1)NC2=O [Compound 859, 4-(3-methyl-4-{2-[4-oxo-2-(3-trifluoromethoxy-phenyl)-1,3,8-triaza-spiro[4.5]dec-1-ene-8-sulfonyl]-ethyl}-phenoxy)-piperidine-1-carboxylic acid tert-butyl ester]	26
O=C1NC(c2cccc(OC(F)(F)F)c2)=NC12CCN(S(=O)(=O)CCc1cc(F)c(OCCC(O)CO)c(F)c1)CC2 (stereo not shown) [Compound 860, 8-{2-[4-(3,4-dihydroxy-butoxy)-3,5-difluoro-phenyl]-ethanesulfonyl}-2-(3-trifluoromethoxy-phenyl)-1,3,8-triaza-spiro[4.5]dec-1-en-4-one]	50
Cc1cc(N2CCC2=O)ccc1CCS(=O)(=O)N1CCC2(CC1)N=C(C1CCCCC1)NC2=O [Compound 861, 2-cyclohexyl-8-{2-[2-methyl-4-(2-oxo-azetidin-1-yl)-phenyl]-ethanesulfonyl}-1,3,8-triaza-spiro[4.5]dec-1-en-4-one]	36

Source: patent US9169254B2, “Spiroimidazolone derivative” (Chugai Seiyaku Kabushiki Kaisha, priority 2009, dated 2015)
